Reference: patent publication US12091425B2 (AMGEN INC., priority 2016, dated 2024)

Tests used:
[1] = tested on: OPM-2 human multiple myeloma cell line; test: Cell Viability Assay (OPM-2 10 FBS); type: cell-based; conditions: OPM-2 cells, CellTiter-Glo
Method in brief: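 IC50 from 4-parameter logistic fit of CellTiter-Glo luminescence. 3000 cells/well, 10% FBS medium, serial compound dilutions, 16 h, 37 °C/5% CO2; read 25 min post-reagent.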

[2] = biological target: T1, Mcl-1/Bim interaction, recombinant human Mcl-1 (171-327) (Homo sapiens, UniProt Q07820); test: Cell free Mcl-1: Bim Affinity Assay (Mcl-1 HTRF); type: binding
T1 construct: made in house
T1 sequence (Q07820 171-327): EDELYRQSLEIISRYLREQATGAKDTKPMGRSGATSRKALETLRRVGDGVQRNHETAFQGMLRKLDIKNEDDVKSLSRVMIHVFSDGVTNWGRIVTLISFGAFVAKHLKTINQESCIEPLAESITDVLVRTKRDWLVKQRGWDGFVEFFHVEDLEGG
Method in brief: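 Read-out is time-resolved FRET after overnight incubation, using a biotin-labelled peptide from human Bim (51-76) as the binding partner; IC50 was derived from competition curves.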

[3] = Homo sapiens, OPM-2, 16 h, 16 h
[4] = TR-FRET, 0.1 nM Mcl-1 (171-327), 0.05 nM biotin-Bim (51-76)
[5] = cell free Mcl-1:Bim TR-FRET, recombinant human Mcl-1 (171-327)

SMILES	IC50 [1, 3] [nM]	IC50 [2, 4] [nM]	further results
C[C@H](O)C[C@@H]1CC/C=C/[C@H](O)[C@@H]2CC[C@H]2CN2C[C@@]3(CCCc4cc(Cl)ccc43)COc3ccc(cc32)C(=O)NS1(=O)=O (single isomer, unassigned) [Example 546]	–	–	IC50 ([1]; 16 h): 854 nM; IC50 [2, 5]: 0.28 nM
CCN1[C@@H](C)CCC[C@H](O)[C@@H]2CC[C@H]2CN2C[C@@]3(CCCc4cc(Cl)ccc43)COc3ccc(cc32)C(=O)NS1(=O)=O [Example 85, (1S,3′R,6′R,7′S,11′S)-6-chloro-12′-ethyl-7′-hydroxy-11′-methyl-3,4-dihydro-2H,15′H-spiro[naphthalene-1,22′-[20]oxa[13]thia[1,12,14]triazatetracyclo[14.7.2.0^3,6.0^19,24]pentacosa[16,18,24]trien]-15′-one 13′,13′-dioxide]	1910	1.88	–
COCCO[C@H]1/C=C/C[C@@H]2COC[C@H]2S(=O)(=O)NC(=O)c2ccc3c(c2)N(C[C@@H]2CC[C@H]21)C[C@@]1(CCCc2cc(Cl)ccc21)CO3 (single isomer, unassigned) [Example 1033]	–	0.366	IC50 ([1]; 16 h incubation): 205 nM
O=C1NS(=O)(=O)N2CCC[C@@H]2C/C=C/[C@H](O)[C@@H]2CC[C@H]2CN2C[C@@]3(CCCc4cc(Cl)ccc43)COc3ccc1cc32 [Example 347, (1S,3′R,6′R,7′S,8′E,11R)-6-chloro-7′-hydroxy-3,4-dihydro-2H,18′H-spiro[naphthalene-1,25′-[23]oxa[16]thia[1,15,17]triazapentacyclo[17.7.2.0^3,6.0^11,15.0^22,27]octacosa[8,19,21,27]tetraen]-18′-one 16′,16′-dioxide]	–	7.22	IC50 ([1]; 16 h): 5550 nM
COCCCN1[C@@H](C)C/C=C/[C@H](O)[C@@H]2CC[C@H]2CN2C[C@@]3(CCCc4cc(Cl)ccc43)COc3ccc(cc32)C(=O)NS1(=O)=O (single isomer, unassigned) [Example 72]	445	0.324	–
CNC(=O)[C@@H](OC)[C@@H]1/C=C/[C@@H]2CC[C@H]2CN2C[C@@]3(CCCc4cc(Cl)ccc43)COc3ccc(cc32)C(=O)NS(=O)(=O)[C@H](C)[C@@H](C)C1.CNC(=O)[C@H](OC)[C@@H]1/C=C/[C@@H]2CC[C@H]2CN2C[C@@]3(CCCc4cc(Cl)ccc43)COc3ccc(cc32)C(=O)NS(=O)(=O)[C@H](C)[C@@H](C)C1 (mixture of isomers) [Example 362]	–	0.639	IC50 ([1]; 16 h): 476 nM
C[C@H]1C/C=C/[C@H](O)[C@@H]2CC[C@H]2CN2C[C@@]3(CCCc4cc(Cl)ccc43)COc3ccc(cc32)C(=O)NS(=O)(=O)[C@@H]1c1ccccc1 (single isomer, unassigned) [Example 654]	–	–	IC50 ([1]; 16 h): 3510 nM; IC50 [2, 5]: 7.6 nM
O=C1NS(=O)(=O)C/C=C/[C@]2(O)CCO[C@@H](C2)[C@@H]2CC[C@H]2CN2C[C@@]3(CCCc4cc(Cl)ccc43)COc3ccc1cc32 (single isomer, unassigned) [Example 918]	–	–	IC50 ([1]; 16 h): 15100 nM; IC50 [2, 5]: 2.75 nM
CCC1CCC=CC(OC(C)C(=O)OC)C2CCC2CN2CC3(CCCc4cc(Cl)ccc43)COc3ccc(cc32)C(=O)NS1(=O)=O (mixture of isomers) [Example 1004]	–	0.635	IC50 ([1]; 16 h incubation): 23.6 nM
C[C@H]1C/C=C/[C@H](O)[C@@H]2CC[C@H]2CN2C[C@@]3(CCCc4cc(Cl)ccc43)COc3ccc(cc32)C(=O)NS(=O)(=O)N1C[C@H]1CCCO1 (single isomer, unassigned) [Example 53]	486	0.79	–
CCN1CC/C=C/[C@H](OCC(=O)OC)[C@@H]2CC[C@H]2CN2C[C@@]3(CCCc4cc(Cl)ccc43)COc3ccc(cc32)C(=O)NS1(=O)=O [Example 43, methyl(((1S,3′R,6′R,7′S,8′E)-6-chloro-12′-ethyl-13′,13′-dioxido-15′-oxo-3,4-dihydro-2H-spiro[naphthalene-1,22′-[20]oxa[13]thia[1,12,14]triazatetracyclo[14.7.2.0^3,6.0^19,24]pentacosa[8,16,18,24]tetraen]-7′-yl)oxy)acetate]	536	0.995	–
O=C1NS(=O)(=O)[C@H]2C[C@H](/C=C/[C@H](O)[C@@H]3CC[C@H]3CN3C[C@@]4(CCCc5cc(Cl)ccc54)COc4ccc1cc43)C2 [Example 102, (1S,3′R,6′R,7′S,8′E,10′R,12′S)-6-chloro-7′-hydroxy-3,4-dihydro-2H,15′H-spiro[naphthalene-1,22′-[20]oxa[13]thia[1,14]diazapentacyclo[14.7.2.1^10,12.0^3,6.0^19,24]hexacosa[8,16,18,24]tetraen]-15′-one 13′,13′-dioxide]	18600	2.73	–

Now from value to compound, other results behind:

IC50 [1, 3] [nM]	IC50 [2, 4] [nM]	SMILES	further results
792	0.109	C[C@@H]1[C@@H](C)C/C=C/[C@H](OCC(=O)N2CC[C@H](O)C2)[C@@H]2CC[C@H]2CN2C[C@@]3(CCCc4cc(Cl)ccc43)COc3ccc(cc32)C(=O)NS1(=O)=O [Example 310, (1S,3′R,6′R,7′S,8′E,11′S,12′R)-6-chloro-7′-(2-((3S)-3-hydroxy-1-pyrrolidinyl)-2-oxoethoxy)-11′,12′-dimethyl-3,4-dihydro-2H,15′H-spiro[naphthalene-1,22′-[20]oxa[13]thia[1,14]diazatetracyclo[14.7.2.0^3,6.0^19,24]pentacosa [8,16,18,24]tetraen]-15′-one 13′,13′-dioxide]	–
686	0.732	COCC[C@H]1/C=C/[C@H](OC)[C@@H]2CC[C@H]2CN2C[C@@]3(CCCc4cc(Cl)ccc43)COc3ccc(cc32)C(=O)NS(=O)(=O)[C@H](C)C1 [Example 204, (1S,3′R,6′R,7′S,8′E,10′R,12′R)-6-chloro-7′-methoxy-10′-(2-methoxyethyl)-12′-methyl-3,4-dihydro-2H,15′H-spiro[naphthalene-1,22′-[20]oxa[13]thia[1,14]diazatetracyclo[14.7.2.0^3,6.0^19,24]pentacosa [8,16,18,24]tetraen]-15′-one 13′,13′-dioxide]	–
123	0.4	COCCOC1C=CCC2COCCC2S(=O)(=O)NC(=O)c2ccc3c(c2)N(CC2CCC21)CC1(CCCc2cc(Cl)ccc21)CO3 (single isomer, unassigned) [Example 322]	–
29200	19.6	CC1CC(=O)N(C)CC2CCC2CN2CC3(CCCc4cc(Cl)ccc43)COc3ccc(cc32)C(=O)NS(=O)(=O)C1C (single isomer, unassigned) [Example 152]	–
132	0.334	COCC1C(C)CC=CC(OC)C2CCC2CN2CC3(CCCc4cc(Cl)ccc43)COc3ccc(cc32)C(=O)NS1(=O)=O (single isomer, unassigned) [Example 460]	–
196	0.223	C[C@@H]1[C@@H](C)C/C=C/[C@H](OCc2ncccn2)[C@@H]2CC[C@H]2CN2C[C@@]3(CCCc4cc(Cl)ccc43)COc3ccc(cc32)C(=O)NS1(=O)=O [Example 317, (1S,3′R,6′R,7′S,8′E,11′S,12′R)-6-chloro-11′,12′-dimethyl-7′-(2-pyrimidinylmethoxy)-3,4-dihydro-2H,15′H-spiro[naphthalene-1,22′-[20]oxa[13]thia[1,14]diazatetracyclo[14.7.2.0^3,6.0^19,24]pentacosa [8,16,18,24]tetraen]-15′-one 13′,13′-dioxide]	–
2760	–	O=C1NS(=O)(=O)CC/C=C/C[C@H](O)[C@@H]2CC[C@H]2CN2C[C@@]3(CCCc4cc(Cl)ccc43)COc3ccc1cc32 (single isomer, unassigned) [Example 846]	IC50 [2, 5]: 2.18 nM
73.5	–	C[C@@H]1[C@@H](C)C/C=C/[C@H](OCCCN2CCOCC2)[C@@H]2CC[C@H]2CN2C[C@@]3(CCCc4cc(Cl)ccc43)COc3ccc(cc32)C(=O)NS1(=O)=O [Example 721, (1S,3′R,6′R,7′S,8′E,11′S,12′R)-6-chloro-11′,12′-dimethyl-7′-(3-(4-morpholinyl)propoxy)-3,4-dihydro-2H,15′H-spiro[naphthalene-1,22′-[20]oxa[13]thia[1,14]diazatetracyclo[14.7.2.0^3,6.0^19,24]pentacosa [8,16,18,24]tetraen]-15′-one-13′, 13′-dioxide]	IC50 [2, 5]: 0.539 nM
–	1.05	COCCO[C@H]1/C=C/[C@@H](C)C[C@@H](C)S(=O)(=O)NC(=O)c2ccc3c(c2)N(C[C@@H]2CC[C@H]21)C[C@@]1(CCCc2cc(Cl)ccc21)CO3 [Example 1020, (1S,3′R,6′R,7′S,8′E,10′S,12′R)-6-chloro-7′-(2-methoxyethoxy)-10′,12′-dimethyl-3,4-dihydro-2H,15′H-spiro[naphthalene-1,22′-[20]oxa[13]thia[1,14]diazatetracyclo[14.7.2.0^3,6.0^19,24]pentacosa [8,16,18,24]tetraen]-15′-one 13′,13′-dioxide]	IC50 ([1]; Homo sapiens, OPM-2, 16 h, 16 h incubation): 759 nM
118	–	C[C@@H]1[C@@H](C)C/C=C/[C@H](OCCN2CCOC2=O)[C@@H]2CC[C@H]2CN2C[C@@]3(CCCc4cc(Cl)ccc43)COc3ccc(cc32)C(=O)NS1(=O)=O [Example 729, (1S,3′R,6′R,7′S,8′E,11′S,12′R)-6-chloro-11′,12′-dimethyl-7′-(2-(2-oxo-1,3-oxazolidin-3-yl)ethoxy)-3,4-dihydro-2H,15′H-spiro[naphthalene-1,22′-[20]oxa[13]thia[1,14]diazatetracyclo[14.7.2.0^3,6.0^19,24]pentacosa [8,16,18,24]tetraen]-15′-one-13′, 13′-dioxide]	IC50 [2, 5]: 0.311 nM
